Values of other authors, collected in US20210186880A1, “ORAL FORMULATIONS WITH INCREASED UPTAKE” (Brown University, priority 2018, published 2021).
Where two headings read alike, the source gives them in different places.

Key:
GLP-1 receptor [1] = target: T1, GLP-1 receptor (Homo sapiens, UniProt P43220)
GLP-1 receptor [2] = target: T1, GLP-1 receptor; remark: listed apart in the source
[3] = oral
[4] = in vivo

T1 sequence (P43220 24-463, species assumed): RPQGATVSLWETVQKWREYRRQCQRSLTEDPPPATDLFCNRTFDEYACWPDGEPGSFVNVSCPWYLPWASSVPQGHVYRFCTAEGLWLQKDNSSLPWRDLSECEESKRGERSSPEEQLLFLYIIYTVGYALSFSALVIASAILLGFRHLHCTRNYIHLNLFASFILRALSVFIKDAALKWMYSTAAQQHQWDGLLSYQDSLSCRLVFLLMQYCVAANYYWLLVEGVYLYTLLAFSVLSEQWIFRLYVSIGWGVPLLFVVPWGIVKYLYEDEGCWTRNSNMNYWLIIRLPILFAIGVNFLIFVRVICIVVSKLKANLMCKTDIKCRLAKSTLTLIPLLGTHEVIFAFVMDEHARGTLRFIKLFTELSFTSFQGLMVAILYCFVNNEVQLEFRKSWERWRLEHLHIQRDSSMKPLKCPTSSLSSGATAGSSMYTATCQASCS

## GLP-1(9-36)-NH2
GLP-1 receptor [1]
  binding affinity compared to the intact peptide, lower: 100 fold
GLP-1 receptor [2]
  agonistic activity, decrease: > 10000 fold

## Glucagon-like peptide-1 [GLP-1]
Continuous 48-hour subcutaneous infusion, ~4-8 ng·kg^−1·min^−1
  fasting and postprandial glucose values: lowered fasting and postprandial glucose values
[3]
  ghrelin secretion: suppressed ghrelin secretion
  insulin release: potent effect on insulin release
[3]; dose-escalating
  plasma drug concentrations: rapid and dose-dependent increase in plasma drug concentrations
[3]; doses of 0.5, 1.0, 2.0, and 4.0 mg
  bioavailabilities: lower than 10%
[3]; relative to intravenous administration
  mean absolute bioavailability: 4%

## rGLP-1: rGLP-1 infused at 1.25-8.5 pmol/kg/min in a cited study
1.25 pmol/kg/min
  fasting serum glucose decrease: 22.7 mg/dL
2.5 pmol/kg/min
  fasting serum glucose decrease: 37.0 mg/dL
5.0 pmol/kg/min
  fasting serum glucose decrease: 53.9 mg/dL
8.5 pmol/kg/min
  fasting serum glucose decrease: 76.2 mg/dL

## semaglutide: GLP-1 analog acylated with a spacer and C-18 fatty di-acid chain
[4]
  plasma half-life: long
